One block for each compound: values may come before it.
Tested on: 922993-354-T-J3-PDC complex spheroids, viability
Assay: Anticancer human tumor 922993-354-T-J3-PDC patient-derived endometrial carcinoma cell line growth inhibition [GQUAD]
Conditions: for IC50: curve of first compound; for viability, T/C: stronger effect = lower value
In short: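 Tumor cells were grown as complex spheroids with HUVEC endothelial cells and mesenchymal stem cells as stroma. G-quadruplex stabilizers were combined with targeted agents over half-log dilutions from near the clinical Cmax, or from 10 microM.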

[1] = second compound 0.0316 µM, first compound 0.0316 µM
[2] = second compound 0.0316 µM, first compound 0.1 µM
[3] = second compound 0.0316 µM, first compound 0.316 µM
[4] = second compound 0.0316 µM, first compound 1 µM
[5] = second compound 0.0316 µM, first compound 3.16 µM
[6] = second compound 0.0316 µM, first compound 10 µM
[7] = second compound 0.1 µM, first compound 0.0316 µM
[8] = second compound 0.1 µM, first compound 0.1 µM
[9] = second compound 0.1 µM, first compound 0.316 µM
[10] = second compound 0.1 µM, first compound 1 µM
[11] = second compound 0.1 µM, first compound 3.16 µM
[12] = second compound 0.1 µM, first compound 10 µM
[13] = second compound 0.316 µM, first compound 0.0316 µM
[14] = second compound 0.316 µM, first compound 0.1 µM
[15] = second compound 0.316 µM, first compound 0.316 µM
[16] = second compound 0.316 µM, first compound 1 µM
[17] = second compound 0.316 µM, first compound 3.16 µM
[18] = second compound 0.316 µM, first compound 10 µM
[19] = second compound 1 µM, first compound 0.0316 µM
[20] = second compound 1 µM, first compound 0.1 µM
[21] = second compound 1 µM, first compound 0.316 µM
[22] = second compound 1 µM, first compound 1 µM
[23] = second compound 1 µM, first compound 3.16 µM
[24] = second compound 1 µM, first compound 10 µM
[25] = second compound 3.16 µM, first compound 0.0316 µM
[26] = second compound 3.16 µM, first compound 0.1 µM
[27] = second compound 3.16 µM, first compound 0.316 µM
[28] = second compound 3.16 µM, first compound 1 µM
[29] = second compound 3.16 µM, first compound 3.16 µM
[30] = second compound 3.16 µM, first compound 10 µM
[31] = second compound 10 µM, first compound 0.0316 µM
[32] = second compound 10 µM, first compound 0.1 µM
[33] = second compound 10 µM, first compound 0.316 µM
[34] = second compound 10 µM, first compound 1 µM
[35] = second compound 10 µM, first compound 3.16 µM
[36] = second compound 10 µM, first compound 10 µM
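Note: spheroids exposed to compounds for seven days.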
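Throughout, for viability, T/C: 100% = DMSO vehicle control viability.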

- IC50 (second compound 0.0316 µM): < 31.6 nM
- IC50 (second compound 0.1 µM): < 31.6 nM
- IC50 (second compound 0.316 µM): < 31.6 nM
- IC50 (second compound 1 µM): < 31.6 nM
- IC50 (second compound 3.16 µM): < 31.6 nM
- IC50 (second compound 10 µM): < 31.6 nM
SMILES: Nc1ccn(C2OC(CO)C(O)C2(F)F)c(=O)n1 (stereo unspecified) + Cc1cnc(CNC(=O)c2c(=O)c3ccc(N4CCCN(C)CC4)nc3n3c2sc2ccccc23)cn1
- viability, T/C [1]: 29.4%
- viability, T/C [2]: 28.8%
- viability, T/C [3]: 23.6%
- viability, T/C [4]: 21.1%
- viability, T/C [5]: 23.4%
- viability, T/C [6]: 21.7%
- viability, T/C [7]: 26.3%
- viability, T/C [8]: 23.9%
- viability, T/C [9]: 29.4%
- viability, T/C [10]: 21.7%
- viability, T/C [11]: 25.2%
- viability, T/C [12]: 27.2%
- viability, T/C [13]: 34.3%
- viability, T/C [14]: 34.5%
- viability, T/C [15]: 30.5%
- viability, T/C [16]: 30.3%
- viability, T/C [17]: 31.5%
- viability, T/C [18]: 27.8%
- viability, T/C [19]: 38.1%
- viability, T/C [20]: 50.9%
- viability, T/C [21]: 54.8%
- viability, T/C [22]: 34.6%
- viability, T/C [23]: 46.1%
- viability, T/C [24]: 39.4%
- viability, T/C [25]: 39.6%
- viability, T/C [26]: 45%
- viability, T/C [27]: 48.3%
- viability, T/C [28]: 38%
- viability, T/C [29]: 56.3%
- viability, T/C [30]: 41.8%
- viability, T/C [31]: 45.1%
- viability, T/C [32]: 33.5%
- viability, T/C [33]: 44.8%
- viability, T/C [34]: 41.2%
- viability, T/C [35]: 39.2%
- viability, T/C [36]: 33.4%

- IC50 (second compound 0.0316 µM): 482 nM
- IC50 (second compound 0.1 µM): 84.6 nM
- IC50 (second compound 0.316 µM): < 31.6 nM
- IC50 (second compound 1 µM): < 31.6 nM
- IC50 (second compound 3.16 µM): < 31.6 nM
- IC50 (second compound 10 µM): < 31.6 nM
SMILES: O=C(NO)c1cnc(N2CCN(S(=O)(=O)c3ccc4ccccc4c3)CC2)nc1 + Cc1cnc(CNC(=O)c2c(=O)c3ccc(N4CCCN(C)CC4)nc3n3c2sc2ccccc23)cn1
- viability, T/C [1]: 80.3%
- viability, T/C [2]: 85%
- viability, T/C [3]: 59.2%
- viability, T/C [4]: 30.6%
- viability, T/C [5]: 5.35%
- viability, T/C [6]: 0.97%
- viability, T/C [7]: 63.8%
- viability, T/C [8]: 47.5%
- viability, T/C [9]: 32.4%
- viability, T/C [10]: 20.5%
- viability, T/C [11]: 8.63%
- viability, T/C [12]: 1.81%
- viability, T/C [13]: 46.4%
- viability, T/C [14]: 32%
- viability, T/C [15]: 36.2%
- viability, T/C [16]: 21.2%
- viability, T/C [17]: 11.2%
- viability, T/C [18]: 2.24%
- viability, T/C [19]: 44.3%
- viability, T/C [20]: 45.7%
- viability, T/C [21]: 28.4%
- viability, T/C [22]: 12.4%
- viability, T/C [23]: 5.24%
- viability, T/C [24]: 0.22%
- viability, T/C [25]: 42%
- viability, T/C [26]: 36.8%
- viability, T/C [27]: 24.9%
- viability, T/C [28]: 4.62%
- viability, T/C [29]: 0.18%
- viability, T/C [30]: 0.17%
- viability, T/C [31]: 38.7%
- viability, T/C [32]: 25%
- viability, T/C [33]: 14.2%
- viability, T/C [34]: 0.2%
- viability, T/C [35]: 0.21%
- viability, T/C [36]: 0.22%

- IC50 (second compound 0.0316 µM): > 10000 nM
- IC50 (second compound 0.1 µM): > 10000 nM
- IC50 (second compound 0.316 µM): < 31.6 nM
- IC50 (second compound 1 µM): < 31.6 nM
- IC50 (second compound 3.16 µM): < 31.6 nM
- IC50 (second compound 10 µM): < 31.6 nM
SMILES: O=c1[nH]cc(F)c(=O)[nH]1 + Cc1cnc(CNC(=O)c2c(=O)c3ccc(N4CCCN(C)CC4)nc3n3c2sc2ccccc23)cn1
- viability, T/C [1]: 85.8%
- viability, T/C [2]: 69.8%
- viability, T/C [3]: 79.3%
- viability, T/C [4]: 96.3%
- viability, T/C [5]: 82.1%
- viability, T/C [6]: 57.4%
- viability, T/C [7]: 65.7%
- viability, T/C [8]: 49.3%
- viability, T/C [9]: 49.7%
- viability, T/C [10]: 61.5%
- viability, T/C [11]: 63.1%
- viability, T/C [12]: 60.1%
- viability, T/C [13]: 50.6%
- viability, T/C [14]: 47.1%
- viability, T/C [15]: 45.5%
- viability, T/C [16]: 42.8%
- viability, T/C [17]: 48.7%
- viability, T/C [18]: 49.3%
- viability, T/C [19]: 54.1%
- viability, T/C [20]: 38.2%
- viability, T/C [21]: 40.8%
- viability, T/C [22]: 42.6%
- viability, T/C [23]: 50%
- viability, T/C [24]: 44.9%
- viability, T/C [25]: 46%
- viability, T/C [26]: 50.6%
- viability, T/C [27]: 43.3%
- viability, T/C [28]: 53.6%
- viability, T/C [29]: 51.5%
- viability, T/C [30]: 46.4%
- viability, T/C [31]: 44.2%
- viability, T/C [32]: 44%
- viability, T/C [33]: 43.7%
- viability, T/C [34]: 37.2%
- viability, T/C [35]: 47.4%
- viability, T/C [36]: 46.1%

From PubChem BioAssay AID2060489 (Molecular Pharmacology Branch, DTP, NCI, 2025)
